The text below walks through data of EP1159261B1, “ANTIZYME MODULATORS AND THEIR USE” (ORIDIGM CORPORATION, priority 1999, dated 2000).

“Also recorded” adds a separate entry of the source. Where two headings read alike, the source gives them in different places.

In experiment [1] the test system is human antizyme sequence. The experiment is described as follows: in vitro antizyme dual luciferase frameshifting assay (in vitro translation in reticulocyte lysate). Type of experiment: biochemical. The settings on record: for In vitro antizyme induction / antizyme induction: result in words; for antizyme induction: sentence does not say in vitro or in vivo, context is the in vitro assay. An excerpt:
As one skilled in the art would appreciate, there are a multitude of means to test the agmatine and polyamine analogs of the invention for the ability to induce a frameshift. […] This assay allows one to measure the efficiency of translational frameshifting on the human antizyme sequence. Briefly, two variations of the human antizyme sequence were cloned between the renilla (5') and firefly (3') luciferase reporter genes in pRL-SV40 (Promega) plasmids. One plasmid contained the wild type antizyme sequence which requires a +1 frameshift for complete translation, the other plasmid contained modified, in-frame antizyme (control) sequences. These plasmids are utilized to transiently or stably transfect human cell lines with either the wild type or in-frame antizyme sequence-containing plasmids. Renilla and firefly luciferase activity in each assay (with cells containing one of the two plasmids) is measured to account for polymerase fall-off or translational efficiency in the presence or absence of the agmatine and polyamine analogs of the invention. That ratio is used to normalize the firefly luciferase activity seen in the wild type sequence, compared to the in-frame control sequence.
In vitro assays of the effect of agmatine and polyamine analogs on antizyme frameshifting were performed as follows. Linearized plasmids containing the wild type and in-frame antizyme sequence were transcribed in vitro, followed by in vitro translation in reticulocyte lysate, with and without agmatine and polyamine analogs. Luminescence was measured using the Dual-Luciferase™ reporter assay (Promega).
This assay allows one to measure the efficiency of translational frameshifting on the human antizyme sequence. Briefly, two variations of the human antizyme sequence were cloned between the renilla (5') and firefly (3') luciferase reporter genes in pRL-SV40 (Promega) plasmids. One plasmid contained the wild type antizyme sequence which requires a +1 frameshift for complete translation, the other plasmid contained modified, in-frame antizyme (control) sequences. These plasmids are utilized to transiently or stably transfect human cell lines with either the wild type or in-frame antizyme sequence-containing plasmids. Renilla and firefly luciferase activity in each assay (with cells containing one of the two plasmids) is measured to account for polymerase fall-off or translational efficiency in the presence or absence of the analogs of the invention. That ratio is used to normalize the firefly luciferase activity seen in the wild type sequence, compared to the in-frame control sequence.
In vitro assays of the effect of agmatine analogs on antizyme frameshifting were performed as follows. Linearized plasmids containing the wild type and in-frame antizyme sequence were transcribed in vitro, followed by in vitro translation in reticulocyte lysate, with and without agmatine analogs . Luminescence was measured using the Dual-Luciferase™ reporter assay (Promega).

For experiment [2], the system named is human antizyme sequence. The experiment is described as follows: in vivo (cellular) antizyme dual luciferase frameshifting assay in transfected cell lines. It is filed as cell-based. Particulars: for In vivo (cellular) antizyme induction: result in words. As for the experimental part: As one skilled in the art would appreciate, there are a multitude of means to test the agmatine and polyamine analogs of the invention for the ability to induce a frameshift. For example, Satriano et al. (J. Biol. Chem., 273:15313-15316 (1998)) and the references cited therein utilized an in vitro reticulocyte system. The agmatine and polyamine analogs of the invention were tested in vitro (such as by test tube) and in vivo (such as by cell culture) using the antizyme dual luciferase frameshifting assay as described by Grentzmann, G., et al in RNA 4:479-486, 1998. This assay allows one to measure the efficiency of translational frameshifting on the human antizyme sequence. Briefly, two variations of the human antizyme sequence were cloned between the renilla (5') and firefly (3') luciferase reporter genes in pRL-SV40 (Promega) plasmids. One plasmid contained the wild type antizyme sequence which requires a +1 frameshift for complete translation, the other plasmid contained modified, in-frame antizyme (control) sequences. These plasmids are utilized to transiently or stably transfect human cell lines with either the wild type or in-frame antizyme sequence-containing plasmids. Renilla and firefly luciferase activity in each assay (with cells containing one of the two plasmids) is measured to account for polymerase fall-off or translational efficiency in the presence or absence of the agmatine and polyamine analogs of the invention. That ratio is used to normalize the firefly luciferase activity seen in the wild type sequence, compared to the in-frame control sequence. […] Agmatine and polyamine analogs of the invention were tested in vitro (such as by test tube) and in vivo (such as with cell lines) using the antizyme dual luciferase frameshifting assay as described by Grentzmann, G., et al in RNA 4:479-486, 1998. This assay allows one to measure the efficiency of translational frameshifting on the human antizyme sequence. Briefly, two variations of the human antizyme sequence were cloned between the renilla (5') and firefly (3') luciferase reporter genes in pRL-SV40 (Promega) plasmids. One plasmid contained the wild type antizyme sequence which requires a +1 frameshift for complete translation, the other plasmid contained modified, in-frame antizyme (control) sequences. These plasmids are utilized to transiently or stably transfect human cell lines with either the wild type or in-frame antizyme sequence-containing plasmids. Renilla and firefly luciferase activity in each assay (with cells containing one of the two plasmids) is measured to account for polymerase fall-off or translational efficiency in the presence or absence of the analogs of the invention. That ratio is used to normalize the firefly luciferase activity seen in the wild type sequence, compared to the in-frame control sequence.

The test system of experiment [3] is breast carcinoma cell line, MDA-MB-231. Nature of the experiment: cell growth inhibition, seven days, MTS/PMS dye assay. Type of experiment: cell-based. Particulars: for IC50: Homo sapiens. As for the experimental part: The IC50 values in the above Table as well as Tables 1B and 1C below were determined with the breast carcinoma cell line, MDA-MB-231.
Cells were plated in 96-well plates such that they would be in log growth for the duration of the assay. The day after plating, drugs were added to the cells and they were grown for seven days. Cell growth was measured by MTS/PMS dye assay (Promega). The assay was done in the presence of 1 mM aminoguanidine to inhibit amine oxidases from the serum in the culture media and 1 µM spermidine to insure that any growth inhibition was not the result of depletion of external polyamines from the media. The assay was also performed over seven days because this allows for the greatest dynamic range in cell growth due to the mechanism of concomitant inhibition of polyamine biosynthesis and transport. Cells need to divide several times before the intracellular level of polyamines begin to decrease to growth inhibitory levels.
(§1) For example, compounds ORI 1041 and ORI 1093 were evaluated as polyamine transport inhibitors and for growth inhibition in a cell based (MDA-MB-231 breast cancer cell line) assay with and without DFMO.

The test system of a further experiment is polyamine transporter. The experiment is described as follows: polyamine transport assay (^3H-spermidine uptake into cells). It is filed as cell-based. The settings on record: result in words. As for the experimental part:
Cells in log growth are pre-incubated with an agmatine analog followed by addition of ^3H-spermidine. […] The cells were then washed three times with cold PBS, lysed with 0.1% SDS, and the amount of polyamine incorporation into the cells was determined by scintillation counting of the cell lysates. To determine a Ki, four substrate concentrations and five inhibitor concentrations and a control were tested. The Ki was determined by a non-linear fit to the Michaelis-Menten equation.
as §1

The mark [4] stands for this setting: MDA-MB-231, with DFMO, unit inferred, read-out: Cell Growth IC50+DFMO.
Where [5] appears, read: MDA-MB-231, without DFMO, unit printed in b172 only, read-out: Cell Growth IC50.

In the case of `NCCCCNCCCN` [Spermidine, reference compound], the In vitro in the experiment on human antizyme sequence [1] (antizyme induction @ 1 mM) is 22% @ 1 mM. Further, the “In vivo (cellular)” value with human antizyme sequence [2] (antizyme induction @ 16 mM) is reported as 35% @ 16 mM.

Regarding `NCCCCCN` [cadaverine, reference compound], in the experiment with human antizyme sequence [1], the “In vitro antizyme induction” value was “no induction was observed; also recorded: no in vitro activity”. Also, the “In vivo (cellular) antizyme induction” value in the experiment on human antizyme sequence [2] was “only slightly less active than putrescine; also recorded: significant in vivo activity”.

`NCCCCON` [Analog 1292, AOBA]: the antizyme induction result in the experiment with human antizyme sequence [1] is on record as “no induction activity is observed”.

`NCCCNCc1ccc(CNCCCN)cc1` [Analog 1283]: the “In vivo (cellular) antizyme induction” value with human antizyme sequence [2] is recorded as “positive; also recorded: increase in induction activity”.

For `CC(=O)NCCCNCCCCNCCCN` [Analog 1110, N^1-acetylspermine], the “In vivo (cellular)” value in the experiment with human antizyme sequence [2] (antizyme induction @ 10 mM) was 30% @ 10 mM. The results for the “In vivo (cellular) antizyme induction” value in the experiment on human antizyme sequence [2] and with human antizyme sequence [2] (listed as ORI 1110) were “demonstrated antizyme inducing activity” and “diminished ability to induce the expression of active antizyme in comparison with spermidine”, respectively.

With `O=S(=O)(NCCCNCCCCNCCCNS(=O)(=O)c1ccc2oc3ccccc3c2c1)c1ccc2oc3ccccc3c2c1` [Analog 1293], the IC50 in experiment [3] (setting [4]) and in experiment [3] (setting [5]) was 2 µM in each case. Also, the “R value (R= IC50/ IC50+DFMO)” value in experiment [3] (MDA-MB-231) is listed as around 1. Further, in the experiment with polyamine transporter, the polyamine transport inhibition entry is “fairly poor transport inhibitor”.

Take `NCCCC[C@H](N)C(=O)O` [L-lysine, reference compound]: the antizyme induction entry in the experiment on human antizyme sequence [1] is recorded as “does not induce antizyme activation”.

Regarding `CC(N)CCC(C)N` (stereo not shown) [Analog 1351, 2,5-diaminohexane], in the experiment with human antizyme sequence [1], the “In vitro antizyme induction” value is “induces antizyme”.

Turning to L-Val-spermine [Analog 1157], the “In vitro antizyme induction” value with human antizyme sequence [1] is given as “retained the ability to induce antizyme”.

`NCCCON` [Analog 1291, AOPA]: the antizyme induction result with human antizyme sequence [1] was “no induction activity is observed”.

For the compound `NCCCNCCCCNCCCNS(=O)(=O)c1ccc2oc3ccccc3c2c1` [Analog 1041], in the experiment with human antizyme sequence [1] (antizyme induction at 0.06 mM), the In vitro turned out to be 15% at 0.06 mM. Besides, in the experiment on human antizyme sequence [1], the “In vitro antizyme induction” value is “demonstrated in vitro induction activity; also recorded: dramatic increase in in vitro induction activity in comparison with spermidine”. The IC50 in experiment [3] (setting [4]) amounted to 53 µM; in experiment [3] (setting [5]), 50 µM; in experiment [3] (MDA-MB-231, Tables 1A and 1B, unit inferred, read-out: IC50) it was 12 µM. Further, the “R value (R= IC50/ IC50+DFMO)” value in experiment [3] (MDA-MB-231) was around 1. For the same compound, the polyamine transport inhibition entry with polyamine transporter is “fairly good transport inhibitor”.

In the case of L-Lys-spermine conjugate [Analog 1202], in the experiment with human antizyme sequence [1], the “In vitro antizyme induction” value is “diminished ability to induce antizyme”. The “In vivo (cellular) antizyme induction” value in the experiment on human antizyme sequence [2] was “positive; also recorded: diminished ability to induce antizyme”.

As for α-dimethylspermine [Analog 1383], in the experiment on human antizyme sequence [2], the “In vivo (cellular) antizyme induction” value is reported as “positive; also recorded: to the same extent as spermine”.

For `NCCCCNCCCCNCCCCN` [Analog 1190], the “In vivo (cellular) antizyme induction” value with human antizyme sequence [2] is given as “negative; also recorded: no ability to induce antizyme”.

Regarding `NCCCNCCCCNCCCN` [spermine, reference compound], in the experiment with human antizyme sequence [1], the “In vitro antizyme induction” value is on record as “induced antizyme”. For the same compound, the “In vivo (cellular) antizyme induction” value in the experiment with human antizyme sequence [2] was “induced antizyme”.

Take `N=C(N)NOCC[C@H](N)C(=O)O` [Analog 1284, L-canavanine]: in the experiment on human antizyme sequence [1], the “In vitro antizyme induction” value was “no activity”.

What is called IC50 is the concentration that gives 50% inhibition.
